Test results: PubChem BioAssay (NCI)
Values joined by “and” are separate entries in the source; they are usually repeats but may differ in a detail not shown here. Equal values may be shown once.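 Five concentrations, 48 hours, 96-well plates. Abbreviation: GI50, concentration required for 50% inhibition of growth. At the TGI there is no net growth.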

Tests used:
Test in all cases: NCI-60 cell line screen, 48 h
A498 renal = test system: A498 renal
OVCAR-5 ovarian = test system: OVCAR-5 ovarian
DLD-1 colon = test system: DLD-1 colon
HCC-2998 colon = test system: HCC-2998 colon
786-0 renal = test system: 786-0 renal
SK-OV-3 ovarian = test system: SK-OV-3 ovarian
ACHN renal = test system: ACHN renal
UACC-257 melanoma = test system: UACC-257 melanoma
NCI-H460 lung = test system: NCI-H460 lung
NCI-H522 lung = test system: NCI-H522 lung

SMILES	TGI (A498 renal) [µM]	TGI (OVCAR-5 ovarian)	TGI (DLD-1 colon) [µM]	TGI (HCC-2998 colon) [µM]	TGI (786-0 renal)	TGI (SK-OV-3 ovarian) [µM]	TGI (ACHN renal)	TGI (UACC-257 melanoma)	TGI (NCI-H460 lung) [µM]	TGI (NCI-H522 lung)	GI50 (A498 renal) [µM]	GI50 (OVCAR-5 ovarian) [µM]	GI50 (DLD-1 colon) [µM]	GI50 (HCC-2998 colon) [µM]	GI50 (786-0 renal) [µM]	GI50 (SK-OV-3 ovarian) [µM]	GI50 (ACHN renal) [µM]	GI50 (UACC-257 melanoma) [µM]	GI50 (NCI-H460 lung)	GI50 (NCI-H522 lung) [µM]
COC(=O)/C(=N\Nc1nnc(C)n1N)C(C#N)c1ccc(Cl)cc1 (configuration not stated)	> 100	> 100 µM	> 100	> 100	> 100 µM	> 100	> 100 µM	> 100 µM	> 100											
O=C1C2C3C=C4c5ccccc5N(c5ccccc5)C4(C2C(=O)N1Cc1ccccc1)C1C(=O)N(Cc2ccccc2)C(=O)C31 (configuration not stated)	> 100	> 100 µM	> 100	> 100	> 100 µM		> 100 µM	> 100 µM	> 100											
CS/C(N)=N\NC(=O)CCC(=O)Nc1ccccc1C(F)(F)F	> 100	> 100 µM	> 100	> 100	> 100 µM	> 100	> 100 µM	> 100 µM	> 100	> 100 µM										
Nn1c(=O)n(Cc2ccccc2)n(-c2ccccc2)c1=O	> 100	> 100 µM	> 100	> 100	> 100 µM	> 100	> 100 µM	> 100 µM	> 100	> 100 µM										
CC1(C)SCc2nc3ncccc3n21	> 100	> 100 µM	> 100	> 100	> 100 µM	> 100	> 100 µM	> 100 µM	> 100	> 100 µM										
CCC[CH2][Sn]1([CH2]CCC)[O]CC(CN2CCCC2)[O]1 (configuration not stated)	46.9	27.7 µM	32.7	28.5	28.2 µM	> 100	31.4 µM	29.7 µM	> 100	11.1 µM	28.5	12.9	16.1	14.3	14.4	37	17.3	14.3	34.6 µM	3.32
COc1cc2c(c(OC)c1OC)-c1ccc(OC)c(=O)cc1[C@@H](NC(=O)c1ccccc1)CC2		30 µM and > 94.1 µM	> 100		30 µM and 47.5 µM		30 µM and > 100 µM	30 µM and > 100 µM		0.0125 µM and 0.0205 µM	< 0.003	< 0.003		< 0.003	0.0114	< 0.003	0.104	24.2	0.00614 µM and < 0.0126 µM	0.00357
COC(=O)C1=C(C)N(NC(=O)OC(C)(C)C)C(=O)C1=P(c1ccccc1)(c1ccccc1)c1ccccc1	> 100	> 100 µM	> 100	> 100	> 100 µM	> 100	> 100 µM	> 100 µM	> 100	> 100 µM										
Cc1cn(C2CC(O)C(CO)O2)c(=O)n2nnnc12 (configuration not stated)	> 100	> 100 µM	> 100	> 100	> 100 µM	> 100		> 100 µM	> 100	> 100 µM										
COC1(OC)C2(Cl)C(Cl)=C(Cl)C1(Cl)C1C=CC=CC12 (configuration not stated)		> 100 µM	> 100	> 100	> 100 µM	> 100	> 100 µM	> 100 µM	> 100	> 100 µM										
c1ccc(CNn2nnc3ccccc32)cc1		> 100 µM	> 100	> 100	> 100 µM	> 100	> 100 µM	> 100 µM	> 100	> 100 µM										
N#CC(NNC(=O)Cc1ccccc1)c1c(O)ccc2ccccc12 (configuration not stated)	> 72.5	> 43.5 µM	> 100	45.4	39.2 µM	31.3	20.2 µM	18.3 µM	> 77.5	34 µM										
Cc1ccc(C2=C(c3ccccc3)C(Br)(c3ccc(C)cc3)C(c3ccccc3)=C2c2ccc(C)cc2)cc1	> 100	> 100 µM	> 100	> 100	> 100 µM	> 100	> 100 µM	> 100 µM	> 100											
CC(C)C(Nc1c2ccccc2nc2ccccc12)C(=O)O (configuration not stated)		> 100 µM	> 100	> 100	> 100 µM	> 100	> 100 µM	> 100 µM	> 100	> 100 µM										
COc1cc(C=C2C(=O)NC(=O)NC2=O)cc(OC)c1OC		> 100 µM	> 100	> 100	> 100 µM	> 100	> 100 µM	> 100 µM	> 100	> 100 µM										
Cc1cc(Cl)ccc1N=C1NC(=O)C(CC(=O)Nc2ccc([N+](=O)[O-])cc2[N+](=O)[O-])S1 (configuration not stated)	51.5	86.8 µM	> 100	> 100	> 100 µM	55	71.4 µM	90.3 µM	84.9											
O=C(O)C1OC(n2cc(F)c(=O)[nH]c2=O)CC1O (configuration not stated)	> 100	> 100 µM	> 100	> 77.4	> 100 µM	> 100	> 59.1 µM	> 100 µM	> 100	> 100 µM										
COc1cc2c(cc1OC)C(CC(=O)NN=C(C)C)NCC2 (configuration not stated)	> 100	> 100 µM	> 100	> 100	> 100 µM	> 100	> 100 µM	> 100 µM	> 100	> 100 µM										
O=C(Cc1ccccc1)NN1C(=O)C(Cl)C1c1cc(Br)ccc1O (configuration not stated)		> 100 µM	> 100	> 100	> 100 µM	39	> 100 µM	> 100 µM	> 100	> 100 µM										
Cc1nc(N)sc1C(=O)/C=C\c1ccc2c(c1)OCO2	> 100	> 100 µM	> 100	> 100	> 100 µM	> 100	> 100 µM	> 100 µM	> 100	> 100 µM										

SMILES	TGI (A498 renal) [µM]	TGI (OVCAR-5 ovarian)	TGI (DLD-1 colon) [µM]	TGI (HCC-2998 colon) [µM]	TGI (786-0 renal)	TGI (SK-OV-3 ovarian) [µM]	TGI (ACHN renal)	TGI (UACC-257 melanoma)	TGI (NCI-H460 lung) [µM]	TGI (NCI-H522 lung)	GI50 (A498 renal) [µM]	GI50 (OVCAR-5 ovarian) [µM]	GI50 (DLD-1 colon) [µM]	GI50 (HCC-2998 colon) [µM]	GI50 (786-0 renal) [µM]	GI50 (SK-OV-3 ovarian) [µM]	GI50 (ACHN renal) [µM]	GI50 (UACC-257 melanoma) [µM]	GI50 (NCI-H460 lung)	GI50 (NCI-H522 lung) [µM]
NCCCCN(CCCN)/[N+]([O-])=N\O		> 100 µM	> 100	> 100	> 100 µM	> 100	> 100 µM	> 100 µM	> 100	> 100 µM										
Cn1c(=O)c(C(c2ccc([N+](=O)[O-])cc2)c2c(O)c3ccccc3n(C)c2=O)cc2ccccc21 (configuration not stated)		92.7 µM	> 100	> 100	> 100 µM	> 100	> 100 µM	45.3 µM	> 100	> 100 µM										
C1=CC2SSSC2C1 (configuration not stated)		> 100 µM	> 100	> 100	> 100 µM	> 100	> 100 µM	> 100 µM	> 100	> 100 µM										
CN1CCN(CCCOc2ccc3nc(Nc4ccc(Cl)c(C(F)(F)F)c4)ccc3c2)CC1	28.8	35.4 µM		30.4	28.2 µM	33	32 µM	33.4 µM	39.1	28.1 µM	13.7	17		14.8	13.9	18.2	12.5	18.8	16.4 µM	14.1
COC1=CC(=O)c2nc(-c3cccc(C)n3)[nH]c2C1=O	35.2	> 100 µM		> 100	46.3 µM	35.7	70.3 µM	> 100 µM	35.2	59.1 µM	16.4	30.9		35.6	19.8	19.3	25.1	65.3	17.1 µM	19.1
COc1cc(C(C)O)c[n+](CCc2c[nH]c3ccccc23)c1 (configuration not stated)	> 100		> 100	> 100	> 100 µM		> 100 µM	> 100 µM	> 100	> 100 µM										
COC(=O)[C@H](C)NC(=O)NC(=O)NC(=O)CI	30.4	36 µM		33.6	32.1 µM	39.1	21 µM	29.9 µM	40.8	3.68 µM	15.4	16.7		17.3	17.3	19	6.76	15.8	20.1 µM	1.96
CCOc1ccccc1N=Nc1ccc2oc(=O)c(C(=O)Nc3cccc(C)c3)cc2c1	> 100	> 100 µM	> 100	96.9	> 100 µM	> 100		> 100 µM		57.1 µM										
COc1ccc(-c2n[nH]nc2-c2cc(OC)c(OC)c(OC)c2)cc1	< 0.0277	> 100 µM		19.5	17.5 µM	0.44	> 100 µM	31.2 µM	26.3	< 0.01 µM	< 0.01	< 0.01		0.0189	< 0.01	< 0.01	0.0169	< 0.01	< 0.01 µM	< 0.01
Cc1cccc(NC(=O)/C(=N\NC(C)(C)C)C2NC(=S)NC2=O)c1C (configuration not stated)	> 100	> 100 µM	> 100	> 100	> 100 µM	> 100	> 100 µM	> 100 µM	> 100											
COc1ccc(/C=C/c2ccnc3ccccc23)c(OC)c1	> 10	> 10 µM		> 10	> 10 µM	> 10	> 10 µM	> 10 µM	> 10	> 10 µM										
COC(=O)C1=CNC=C(C(=O)OC)C1C1=CC(=O)C(C)=CC1=O	33.6	31.7 µM		28.1	11.5 µM	37.3	8.18 µM	31.1 µM	30.5	47.2 µM	13.1	17.7		14.9	4.3	17.6	2.52	16.4	14.2 µM	19.8
CCCCC(O)(c1ccc(Cl)cc1)C(CN1CCOCC1)c1ccc(Cl)cc1 (configuration not stated)	24.1	23.7 µM		26.8	27.5 µM	47.1	28.5 µM	35 µM	25.7	21.7 µM	11.1	10.7		12.3	13.6	15.2	14.4	14.3	10.7 µM	7.26
C[N+](C)(C)CC1CCCCCCCCCCC1=O (configuration not stated)	> 100	> 100 µM		> 100	> 100 µM	> 100	> 100 µM	> 100 µM	> 100	> 100 µM										
CC(=O)CSCc1ccccn1	> 100	> 100 µM		> 100	> 100 µM	> 100	> 100 µM	> 100 µM	> 100	45.3 µM										
Cc1ccn2c(c1)nc1nc3ccccc3nc12		> 100 µM	> 100		> 100 µM	> 100	> 100 µM	> 100 µM	> 100	> 100 µM										
COc1cc2ncnc(Nc3ccc(C)c(O)c3)c2cc1OC	18	> 25 µM		> 25	> 25 µM	> 19.9	> 25 µM	> 25 µM	> 25	> 18.6 µM	5.56	16.2		> 25	11.4	1.32	0.799	> 25	> 25 µM	2.83
NS(=O)(=O)c1ccc(N=Nc2c(O)[nH]c3ccc(-c4cnco4)cc23)cc1	> 25	> 25 µM		> 25	> 25 µM	> 25	> 25 µM	> 25 µM	> 25	> 25 µM	> 25	> 25		> 25	> 25	> 25	17.7	> 25	14.3 µM	> 6.68
COc1ccccc1CCc1cc(OC)c(OC)c(OC)c1	> 100	51.3 µM	> 100		> 100 µM		> 100 µM	> 100 µM	> 100	> 100 µM										
C=C1C(=O)O[C@@H]2/C=C(\C)CC/C=C(/COC(C)=O)C[C@@H](OC(C)=O)[C@@H]12	36.6	34.6 µM		30.2	17.7 µM	> 100	17 µM	32.2 µM	26	3.2 µM										
